Measurements published in US20100158863A1, “TRIAZOLOANILINOPYRIMIDINE DERIVATIVES FOR USE AS ANTIVIRAL AGENTS” (ARROW THERAPEUTICS LIMITED, priority 2006, published 2010).

What was measured:
[1] = tested on: Huh-9B; experiment: Toxicity determination on the tox plate by methylene blue staining; assay type: cell-based; settings: Huh-9B cells, parallel tox plate
Procedure: (§1) Cells are suspended in growth media and counted using a haemocytometer. Duplicate 96 well plates are seeded with Huh-9B at a density of 10^4 cells/well in a total volume of 100 μl/well of growth medium without antibiotics as depicted below.
(§2) One of the plates is an opaque white 96-well plate used for IC50 determination based on the luciferase signal (referred as replicon plate), the other one is a clear 96-well plate used for a parallel determination of drug toxicity by methylene blue staining (referred as tox plate). Wells G12 and H12 of the tox plate are left without cells to use as buffer alone background reading.
(§3) Doubling dilutions of each compound are generated in a separate 96 high volume capacity round bottom plate to twice their initial concentration in the assay using growth medium without antibiotics.
(§4) Compounds are tested across an 8 point doubling dilution series. The initial dilution of each compound to be tested is 25 μM and 12.5 μM for the control compound.
(§5) For each compound dilution on the 2×96-well dilution plate 100 μl are transferred using a multichannel pipette onto the replicon and tox plates mirror wells which contain […] of medium to obtain the desired final concentration.
Media is tapped out from wells into Virkon and plates tapped dry gently. To each well 100 μl of 0.5% solution of methylene blue in 50% methanol is added to all wells including blanks (G12 and H12). Plates are left at RT for a minimum of 1 h. Plates are then rinsed gently by immersing in a plastic box with water, tapped dry gently and left open until they are fully dry. Dye is solubilized adding 100 μl of 1% lauroylsarcosine to each well and shaking for 1 h at 37° C. Plates are read on the SpectraMax spectrophotometer at 620 nm wavelength using the SOFTmax Pro software package.
(§6) SOFTmax data files are exported as Excel or text files. A standard four parameters non-linear regression analysis of the data obtained from each compound is then used to calculate the IC50.
(§7) In the above analysis all replicate wells are meaned. The % of control is then calculated for each concentration point as a percentage of the DMSO control wells.

[2] = tested on: HCV replicon 1b (Huh-9B); experiment: HCV replicon activity, luciferase detection on the replicon plate; assay type: cell-based, HCV genotype 1b; settings: Huh-9B replicon cells, luciferase signal
Source text: 1b replicon (Huh.7) described in Science 285, 110-113. • Huh-9B: liver cell line with persistent bicistronic HCV genotype 1b coding sequence: [I3891ucubineo—3-3′_ET] includes firefly luciferase-ubiquitin-neomycin phosphotransferase fusion protein and EMCV-IRES driven non-structural HCV (NS3 to NS5B) coding sequence including cell culture adaptive mutations E1202G, […] and K1846T (Lohmann et al, 2001).
This assay is set up using all 96 wells of flat-bottomed 96-well plates. Plates are set up one day before addition of compounds. The assay then runs for 4 days with ELISA development taking place on the 5th day.
Exponentially growing Huh-9B monolayers are washed with sterile PBS to remove serum and treated with trypsin to detach cells from the flask.
as §1, §2
Plates are then incubated at 37° C. in a 5% CO2 environment for 24 h to obtain a 90% confluent cell monolayer.
as §3
Five compounds (C1 to C5) are tested on each assay plate as illustrated below plus a control compound that is also included in each plate.
as §4
DMSO only wells (A1 and A2) at 1% provide the signal corresponding to maximal (100%) luciferase detection. […] The signal from the DMSO wells at 1% (maximal signal) constitutes the assay window.
as §5
Media is tapped out from wells into Virkon and plates are washed once in warm PBS and tapped dry gently.
For each well 20 μl of lysis buffer is added by multichannel pipette. Lysates are stable at this point for several hours.
Luciferase assay buffer is placed it in the luminometer (Lmax, Molecular Devices).
The M injector is primed with 4×300 μl of luciferase assay buffer. The plate to be analyzed is placed in the luminometer and […] of luciferase assay buffer injected automatically into one well followed by 4 seconds integration read out.
After one second delay a second well is injected with 100 μl of luciferase assay buffer followed by 4 seconds integration read out and so forth until all 96 wells are analyzed.
Once the reading is finished the luminometer injection system is washed with deionised water.
The data is acquired using the SOFTmax for Lmax Pro software package.
as §6, §7

| Molecule | Replicon TD50 [1] | IC50 ([2]; Hepatitis C virus) | IC50 [2] |
| --- | --- | --- | --- |
| Fc1ccc(-c2ccc3ncnc(Nc4ccc(-n5cncn5)cc4)c3c2)cc1F [Example 5, [6-(3,4-Difluoro-phenyl)-quinazolin-4-yl]-(4-[1,2,4]triazol-1-yl-phenyl)-amine] | ** (** >25 μM) | < 5 µM | – |
| CCOc1ccc(-c2ccc3ncnc(Nc4ccc(-n5cncn5)cc4)c3c2)cc1OCC [Example 11, [6-(3,4-Diethoxy-phenyl)-quinazolin-4-yl]-(4-[1,2,4]triazol-1-yl-phenyl)-amine] | ** (** >25 μM) | < 5 µM | – |
| COc1cc2c(Nc3ccc(-n4cncn4)cc3)ncnc2cc1OCCCCl [Example 3, [7-(3-Chloro-propoxy)-6-methoxy-quinazolin-4-yl]-(4-[1,2,4]triazol-1-yl-phenyl)amine] | ** (** >25 μM) | < 5 µM | – |
| COc1ccc(-c2ccc3ncnc(Nc4ccc(-n5cncn5)cc4)c3c2)cc1F [Example 7, [6-(3-Fluoro-4-methoxy-phenyl)-quinazolin-4-yl]-(4-[1,2,4]triazol-1-yl-phenyl)-amine] | ** (** >25 μM) | < 5 µM | – |
| Cc1csc(-c2ccc3ncnc(Nc4ccc(-n5cncn5)cc4)c3c2)c1 [Example 18, [6-(4-Methyl-thiophen-2-yl)-quinazolin-4-yl]-(4-[1,2,4]triazol-1-yl-phenyl)-amine] | ** (** >25 μM) | < 5 µM | – |
| CN(C)CCN(C)CCOc1ccc(-c2ccc3ncnc(Nc4ccc(-n5cncn5)cc4)c3c2)cc1F [Example 22, N-(2-{2-Fluoro-4-[4-(4-[1,2,4]triazol-1-yl-phenylamino)-quinazolin-6-yl]-phenoxy}-ethyl)-N,N′,N′-trimethyl-ethane-1,2-diamine] | * (* <25 μM) | < 5 µM | – |
| COCCOc1ccc(-c2ccc3ncnc(Nc4ccc(-n5nc(C(=O)N6CCN(C)CC6)nc5C)cc4)c3c2)cc1F [Example 34, [1-(4-{6-[3-Fluoro-4-(2-methoxy-ethoxy)-phenyl]-quinazolin-4-ylamino}-phenyl)-5-methyl-1H-[1,2,4]triazole-3-yl]-(4-methyl-piperazin-1-yl)methanone] | ** (** >25 μM) | < 5 µM | – |
| c1nc(Nc2ccc(-n3cncn3)cc2)c2cc(-c3ccc(N4CCOCC4)cc3)ccc2n1 [Example 14] | * (* <25 μM) | – | < 5 µM |
| Fc1cc(-c2ccc3ncnc(Nc4ccc(-n5cncn5)cc4)c3c2)ccc1OCCCN1CCOCC1 [Example 26, {6-[3-fluoro-4-(3-morpholin-4-yl-propoxy)-phenyl]-quinazoline-4-yl}-(4-[1,2,4]triazole-1-yl-phenyl)amine] | * (* <25 μM) | < 5 µM | – |
| c1coc(-c2ccc3ncnc(Nc4ccc(-n5cncn5)cc4)c3c2)c1 [Example 19] | ** (** >25 μM) | – | < 5 µM |
| c1cc(COc2ccc(-c3ccc4ncnc(Nc5ccc(-n6cncn6)cc5)c4c3)cc2)ccn1 [Example 13] | * (* <25 μM) | – | 5 to 20 µM |
| COc1ccc(-c2ccc3ncnc(Nc4ccc(-n5cncn5)cc4)c3c2)cc1OC(C)C [Example 23, [6-(3-Isopropoxy-4-methoxy-phenyl)-quinazolin-4-yl]-(4-[1,2,4]triazol-1-yl-phenyl)-amine] | * (* <25 μM) | < 5 µM | – |
| CCOc1ccc(-c2ccc3ncnc(Nc4ccc(-n5cncn5)cc4)c3c2)cc1F [Example 8, [6-(4-Ethoxy-3-fluoro-phenyl)-quinazolin-4-yl]-(4-[1,2,4]triazol-1-yl-phenyl)-amine] | ** (** >25 μM) | < 5 µM | – |
| c1csc(-c2ccc3ncnc(Nc4ccc(-n5cncn5)cc4)c3c2)c1 [Example 17, (6-Thiophen-2-yl-quinazolin-4-yl)-(4-[1,2,4]triazol-1-yl-phenyl)-amine] | ** (** >25 μM) | < 5 µM | – |
| CN(C)CCOc1ccc(-c2ccc3ncnc(Nc4ccc(-n5cncn5)cc4)c3c2)cc1F [Example 20, {6-[4-(2-Dimethylamino-ethoxy)-3-fluoro-phenyl]-quinazoline-4-yl}-(4-[1,2,4]triazole-1-yl-phenyl)amine] | * (* <25 μM) | < 5 µM | – |
| COCCOc1ccc(-c2ccc3ncnc(Nc4ccc(-n5cncn5)cc4)c3c2)cc1F [Example 9, {6-[3-Fluoro-4-(2-methoxy-ethoxy)-phenyl]-quinazolin-4-yl}-(4-[1,2,4]triazol-1-yl-phenyl)-amine] | ** (** >25 μM) | < 5 µM | – |
| 1-(4-{6-[3-Fluoro-4-(2-methoxy-ethoxy)-phenyl]-quinazolin-4-ylamino}-phenyl)-5-methyl-1H-[1,2,4]triazole-3-carboxylic acid [Example 28] | ** (** >25 μM) | – | 5 to 20 µM |
| COCCOc1ccc(-c2ccc3ncnc(Nc4ccc(-n5nc(C(=O)N(C)C)nc5C)cc4)c3c2)cc1F [Example 32, 1-(4-{6-[3-Fluoro-4-(2-methoxy-ethoxy)-phenyl]-quinazolin-4-ylamino}-phenyl)-5-methyl-1H-[1,2,4]triazole-3-carboxylic acid dimethylamide] | * (* <25 μM) | < 5 µM | – |
| Fc1cc(-c2ccc3ncnc(Nc4ccc(-n5cncn5)cc4)c3c2)ccc1Cl [Example 6, [6-(4-Chloro-3-fluoro-phenyl)-quinazolin-4-yl]-(4-[1,2,4]triazol-1-yl-phenyl)-amine] | ** (** >25 μM) | > 20 µM | – |
| COc1ccc(-c2ccc3ncnc(Nc4ccc(-n5nc(C(=O)O)nc5C)cc4)c3c2)cc1OC [Example 29, 1-(4-{6-[3,4-Dimethoxy-phenyl]-quinazolin-4-ylamino}-phenyl)-5-methyl-1H-[1,2,4]triazole-3-carboxylic acid] | ** (** >25 μM) | 5 to 20 µM | – |
| COc1ccc(-c2ccc3ncnc(Nc4ccc(-n5nc(C(=O)N(C)C)nc5C)cc4)c3c2)cc1OC [Example 30, 1-{-4-[6-(3,4-Dimethoxy-phenyl)-quinazolin-4-ylamino]-phenyl}-5-methyl-1H-[1,2,4]triazole-3-carboxylic acid dimethylamide] | * (* <25 μM) | < 5 µM | – |
| COc1cc2c(Nc3ccc(-n4cncn4)cc3)ncnc2cc1OCCCN1CCOCC1 [Example 4, [6-Methoxy-7-(3-morpholin-4-yl-propoxy)-quinazolin-4-yl]-(4-[1,2,4]triazol-1-yl-phenyl)-amine] | ** (** >25 μM) | 5 to 20 µM | – |
| c1nc(Nc2ccc(-n3cncn3)cc2)c2cc(-c3ccc4c(c3)OCCO4)ccc2n1 [Example 15, [6-(2,3-Dihydro-benzo[1,4]dioxin-6-yl)-quinazolin-4-yl]-(4-[1,2,4]triazol-1-yl-phenyl)-amine] | ** (** >25 μM) | < 5 µM | – |
| CC(C)(C)c1ccc2ncnc(Nc3ccc(-n4cncn4)cc3)c2c1 [Example 2, (6-tert-Butyl-quinazolin-4-yl)-(4-[1,2,4]triazol-1-yl-phenyl)-amine] | ** (** >25 μM) | 5 to 20 µM | – |
| Cc1cc(-n2cncn2)ccc1Nc1ncnc2ccc(Br)cc12 [Example 33] | ** (** >25 μM) | – | < 5 µM |
| COc1ncc(-c2ccc3ncnc(Nc4ccc(-n5cncn5)cc4)c3c2)cn1 [Example 16, [6-(2-Methoxy-pyrimidin-5-yl)-quinazolin-4-yl]-(4-[1,2,4]triazol-1-yl-phenyl)-amine] | ** (** >25 μM) | < 5 µM | – |
